# ChEMBL document CHEMBL3244327, “Benzomorphans. Structure of a position isomer” (J Med Chem, 1978)
# The source made the active and inactive calls. The rule behind the calls is not given here.
# Experiments:
# [1] = system: Mus musculus; assay: Analgesic activity in sc dosed mouse assessed as inhibition of acetylcholine bromide-induced writhing after 2 mins; format: functional
# [2] = system: Rattus norvegicus; assay: Narcotic antagonist activity in sc dosed rat assessed as dose required for 50% antagonist activity co-treated with meperidine; format: functional
# [3] = system: Rattus norvegicus; assay: Narcotic antagonist activity in rat assessed as dose required for 50% antagonist activity at 10 mg/kg, sc co-treated with meperidine; format: functional, organism-based; design: dose 10 mg/kg
# [4] = system: Rattus norvegicus; assay: Toxicity in rat at 80 mg/kg, sc; format: organism-based; design: dose 80 mg/kg, route subcutaneous; conditions: in vivo
# [5] = system: Rattus norvegicus; assay: Narcotic antagonist activity in rat assessed as dose required for 50% antagonist activity at 80 mg/kg, sc co-treated with meperidine; format: functional, organism-based; design: dose 80 mg/kg
SMILES,ED50 [1],AD50 [2],further results
C=CCN1CC[C@]2(CC)c3cc(O)ccc3CC1[C@@H]2C,0.23 mg/kg,0.064 mg/kg,–
C[C@H]1C2Cc3ccc(O)cc3[C@@]1(C)CCN2Cc1ccccc1,23 mg/kg,1.3 mg/kg,–
CC(C)=CCN1C[C@@H](C)[C@]2(C)C[C@@H]1Cc1ccc(O)cc12,29 mg/kg,2.8 mg/kg,–
CC[C@@]12CCN(CC=C(C)C)C(Cc3ccc(O)cc31)[C@@H]2C,2.1 mg/kg,10.9 mg/kg,–
CC1CN(C)C2Cc3ccc(O)cc3[C@@]1(C)C2 (some centres undefined),2.9 mg/kg,–,–
CC1CN(Cc2ccccc2)C2Cc3ccc(O)cc3[C@@]1(C)C2 (some centres undefined),8.5 mg/kg,–,Activity [3]: inactive; Activity [4]: Toxic
C[C@H]1C2Cc3ccc(O)cc3[C@@]1(C)CCN2C,0.54 mg/kg,–,–
CCC1CN(C)C2Cc3ccc(O)cc3[C@@]1(C)C2 (some centres undefined),20 mg/kg,9 mg/kg,–
CC[C@@]12CC(Cc3ccc(O)cc31)N(CC=C(C)C)CC2C (some centres undefined),–,>40 mg/kg,–
C=CCN1CC(C)[C@]2(CC)CC1Cc1ccc(O)cc12 (some centres undefined),10 mg/kg,0.037 mg/kg,–
CC[C@H]1C2Cc3ccc(O)cc3[C@@]1(C)CCN2C,1.1 mg/kg,–,Activity [5]: inactive
CN1CC[C@]23c4c5ccc(O)c4O[C@H]2[C@@H](O)C=C[C@H]3[C@H]1C5 [MORPHINE],0.47 mg/kg,–,Activity [2]: inactive
CC(C)=CCN1CC[C@@]2(C)c3cc(O)ccc3C[C@@H]1[C@@H]2C (relative stereo),2.2 mg/kg,3.9 mg/kg,–
